Read-outs that look alike come from different tables or passages of the source.
How the values were obtained:
[1] = molecular target: T1, catalytic domain of human Bub1 (amino acids 704-1085) (Homo sapiens, UniProt O43683); assay: Bub1 kinase assay (TR-FRET); format: biochemical
T1 construct: catalytic domain of human Bub1 (amino acids 704-1085); His6 (N); made in house; host or cells: Hi5 insect cells
Protocol: To this end, 100-fold concentrated compound solutions (in DMSO) were previously prepared by serial dilution (1:3.4) of 2 mM stocks in a clear low volume 384-well source microtiter plate (Greiner Bio-One, Frickenhausen, Germany), from which 50 nl of compounds were transferred into a black low volume test microtiter plate from the same supplier. […] The resulting mixture (5 μL final volume) was incubated at […] during 60 min., and the reaction was stopped by the addition of 5 μL of an aqueous EDTA-solution (50 mM EDTA, in 100 mM HEPES pH 7.5 and 0.2% (w/v) bovine serum albumin) which also contained the TR-FRET detection reagents (0.2 μM streptavidin-XL665 [Cisbio Bioassays, Codolet, France] and 1 nM anti-phosho-Serine antibody [Merck Millipore, cat. #35-001] and 0.4 nM LANCE EU-W1024 labeled anti-mouse IgG antibody [Perkin-Elmer, product no. AD0077, alternatively a Terbium-cryptate-labeled anti-mouse IgG antibody from Cisbio Bioassays can be used]). The stopped reaction mixture was further incubated 1 h at 22° C. in order to allow the formation of complexes between peptides and detection reagents. Subsequently, the amount of product was evaluated by measurement of the resonance energy transfer from the Eu-chelate-antibody complex recognizing the Phosphoserine residue to the streptavidin-XL665 bound to the biotin moiety of the peptide. […] IC50 values were calculated by fitting the normalized inhibition data to a 4-parameter logistic equation (Minimum, Maximum, IC50, Hill; Y=Max+(Min−Max)/(1+(X/IC50)Hill)).

HeLa cell line = assay: Proliferation assay (HeLa cell line); format: cell-based; settings: Homo sapiens, 96 h, read-out: Biological Assay 2: Proliferation assay (HeLa cell line) median IC50
Protocol: Cultivated tumor cells (cells were ordered from ATCC, except HeLa-MaTu and HeLa-MaTu-ADR, which were ordered from EPO-GmbH, Berlin) were plated at a density of 1000 to 5000 cells/well, depending on the growth rate of the respective cell line, in a 96-well multititer plate in 200 μL of their respective growth medium supplemented 10% fetal calf serum. After 24 hours, the cells of one plate (zero-point plate) were stained with crystal violet (see below), while the medium of the other plates was replaced by fresh culture medium (200 μL), to which the test substances were added in various concentrations (0 μM, as well as in the range of 0.001-10 μM; the final concentration of the solvent dimethyl sulfoxide was 0.5%). The cells were incubated for 4 days in the presence of test substances. Cell proliferation was determined by staining the cells with crystal violet: the cells were fixed by adding 20 μl/measuring point of an 11% glutaric aldehyde solution for 15 minutes at room temperature. After three washing cycles of the fixed cells with water, the plates were dried at room temperature. The cells were stained by adding 100 μl/measuring point of a 0.1% crystal violet solution (pH 3.0). After three washing cycles of the stained cells with water, the plates were dried at room temperature. The dye was dissolved by adding 100 μl/measuring point of a 10% acetic acid solution. Absorption was determined by photometry at a wavelength of 595 nm. The change of cell number, in percent, was calculated by normalization of the measured values to the absorption values of the zero-point plate (=0%) and the absorption of the untreated (0 μm) cells (=100%). The IC50 values were determined by means of a 4 parameter fit using the company's own software.

[2] = TR-FRET, 10 μM ATP, 1 μM peptide substrate, read-out: Biological Assay 1: Bub1 kinase assay median IC50
[3] = cervical cancer, 4 days incubation, crystal violet staining

T1 sequence (O43683 704-1085): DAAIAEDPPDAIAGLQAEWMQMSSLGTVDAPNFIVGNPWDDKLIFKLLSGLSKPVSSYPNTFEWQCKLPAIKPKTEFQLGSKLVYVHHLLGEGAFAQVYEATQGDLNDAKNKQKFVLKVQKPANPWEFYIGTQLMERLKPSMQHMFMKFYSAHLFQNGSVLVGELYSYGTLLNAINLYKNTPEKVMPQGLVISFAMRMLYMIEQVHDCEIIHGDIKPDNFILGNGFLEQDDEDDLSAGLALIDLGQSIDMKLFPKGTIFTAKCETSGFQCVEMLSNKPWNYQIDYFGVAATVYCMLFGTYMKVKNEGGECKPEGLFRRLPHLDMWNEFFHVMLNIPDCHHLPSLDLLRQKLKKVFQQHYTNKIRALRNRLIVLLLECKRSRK

SMILES: CCOc1cc(F)c(Cn2nc(-c3nc(N)c(NS(=O)(=O)C(F)(F)F)c(Nc4ccncc4)n3)c3ccccc32)c(F)c1 [Example 2-3-16, N-{4-amino-2-[1-(4-ethoxy-2,6-difluorobenzyl)-1H-indazol-3-yl]-6-(pyridin-4-ylamino)pyrimidin-5-yl}-1,1,1-trifluoromethanesulfonamide]
- IC50 [1, 2]: 0.0087 µM
- IC50 (HeLa cell line): ≥ 10 µM

SMILES: CC(=O)Nc1cc(Nc2ccncc2)nc(-c2nn(Cc3ccccc3F)c3ccccc23)n1 [Example 2-2-1, N-{2-[1-(2-fluorobenzyl)-1H-indazol-3-yl]-6-(pyridin-4-ylamino)pyrimidin-4-yl}acetamide]
- IC50 [1]: > 20 µM
- IC50 (HeLa cell line; [3]): ≥ 10 µM

SMILES: CCOc1cc(F)c(Cn2nc(-c3nc(N)c(OCCOC)c(Nc4ccncn4)n3)c3ccccc32)c(F)c1 [Example 2-3-11, 2-[1-(4-ethoxy-2,6-difluorobenzyl)-1H-indazol-3-yl]-5-(2-methoxyethoxy)-N-(pyrimidin-4-yl)pyrimidine-4,6-diamine]
- IC50 [1, 2]: 0.0052 µM
- IC50 (HeLa cell line): 3.7 µM

SMILES: CCOc1cc(F)c(Cn2nc(-c3nc(N)cc(Nc4ccncn4)n3)c3ccccc32)c(F)c1 [Example 2-3-5, 2-[1-(4-ethoxy-2,6-difluorobenzyl)-1H-indazol-3-yl]-N-(pyrimidin-4-yl)pyrimidine-4,6-diamine]
- IC50 [1, 2]: 0.0053 µM
- IC50 (HeLa cell line): 7.8 µM

SMILES: CCOc1cc(F)c(Cn2nc(-c3nc(N)c(N4CCOCC4)c(Nc4ccncn4)n3)c3ccccc32)c(F)c1 [Example 2-3-7, 2-[1-(4-ethoxy-2,6-difluorobenzyl)-1H-indazol-3-yl]-5-(morpholin-4-yl)-N-(pyrimidin-4-yl)pyrimidine-4,6-diamine]
- IC50 [1, 2]: 0.0066 µM
- IC50 (HeLa cell line): 9 µM

SMILES: CCOc1cc(F)c(Cn2nc(-c3nc(N)c(NC(=O)COC)c(Nc4ccncc4)n3)c3ccccc32)c(F)c1 [Example 2-3-13, N-{4-amino-2-[1-(4-ethoxy-2,6-difluorobenzyl)-1H-indazol-3-yl]-6-(pyridin-4-ylamino)pyrimidin-5-yl}-2-methoxyacetamide]
- IC50 [1, 2]: 0.011 µM
- IC50 (HeLa cell line): 7.8 µM

SMILES: CCOc1cc(F)c(Cn2nc(-c3nc(N)nc(Nc4ccncc4)n3)c3ccccc32)c(F)c1 [Example 2-3-9, 6-[1-(4-ethoxy-2,6-difluorobenzyl)-1H-indazol-3-yl]-N-(pyridin-4-yl)-1,3,5-triazine-2,4-diamine]
- IC50 [1, 2]: 0.0058 µM
- IC50 (HeLa cell line): 2.9 µM

SMILES: CCNC(=O)Nc1nc(-c2nn(Cc3c(F)cc(OCC)cc3F)c3ccccc23)nc(Nc2ccncc2)c1N1CCOCC1 [Example 2-3-4, 1-{2-[1-(4-ethoxy-2,6-difluorobenzyl)-1H-indazol-3-yl]-5-(morpholin-4-yl)-6-(pyridin-4-ylamino)pyrimidin-4-yl}-3-ethylurea]
- IC50 [1]: 0.13 µM
- IC50 (HeLa cell line; [3]): ≥ 10 µM

SMILES: CCOc1cc(F)c(Cn2nc(-c3nc(N)c(OC)c(Nc4ccncc4)n3)c3ccccc32)c(F)c1 [Example 2-3-2, 2-[1-(4-ethoxy-2,6-difluorobenzyl)-1H-indazol-3-yl]-5-methoxy-N-(pyridin-4-yl)pyrimidine-4,6-diamine]
- IC50 [1, 2]: 0.0083 µM
- IC50 (HeLa cell line): 3.8 µM

SMILES: CCOc1cc(F)c(Cn2nc(-c3nc(Nc4ccncn4)c(N4CCOCC4)c(Nc4ccncn4)n3)c3ccccc32)c(F)c1 [Example 2-4-4, 2-[1-(4-ethoxy-2,6-difluorobenzyl)-1H-indazol-3-yl]-5-(morpholin-4-yl)-N,N′-di(pyrimidin-4-yl)pyrimidine-4,6-diamine]
- IC50 [1]: 0.098 µM

SMILES: CCOc1cc(F)c(Cn2nc(-c3nc(Nc4ccncc4)c(NS(=O)(=O)CC)c(Nc4ccncc4)n3)c3ccccc32)c(F)c1 [Example 2-4-10, N-{2-[1-(4-ethoxy-2,6-difluorobenzyl)-1H-indazol-3-yl]-4,6-bis(pyridin-4-ylamino)pyrimidin-5-yl}ethanesulfonamide]
- IC50 [1, 2]: 0.71 µM
- IC50 (HeLa cell line): ≥ 10 µM

SMILES: CCOc1cc(F)c(Cn2nc(-c3nc(N)c(N4CCOCC4)c(Nc4ccncc4)n3)c3ccccc32)c(F)c1 [Example 2-3-3, 2-[1-(4-ethoxy-2,6-difluorobenzyl)-1H-indazol-3-yl]-5-(morpholin-4-yl)-N-(pyridin-4-yl)pyrimidine-4,6-diamine]
- IC50 [1, 2]: 0.0043 µM
- IC50 (HeLa cell line): 3.6 µM

SMILES: CCOc1cc(F)c(Cn2nc(-c3nc(Nc4ccncc4)cc(Nc4ccncc4)n3)c3ccccc32)c(F)c1 [Example 2-4-1, 2-[1-(4-ethoxy-2,6-difluorobenzyl)-1H-indazol-3-yl]-N,N′-di(pyridine-4-yl)pyrimidine-4,6-diamine]
- IC50 [1, 2]: 0.081 µM

SMILES: CCOc1cc(F)c(Cn2nc(-c3nc(N)c(OCCOC)c(Nc4ccncc4)n3)c3ccccc32)c(F)c1 [Example 2-3-10, 2-[1-(4-ethoxy-2,6-difluorobenzyl)-1H-indazol-3-yl]-5-(2-methoxyethoxy)-N-(pyridin-4-yl)pyrimidine-4,6-diamine]
- IC50 [1, 2]: 0.0072 µM
- IC50 (HeLa cell line): 3.9 µM

SMILES: CCOc1cc(F)c(Cn2nc(-c3nc(N)c(OCCO)c(Nc4ccncc4)n3)c3ccccc32)c(F)c1 [Example 2-5-1, 2-({4-amino-2-[1-(4-ethoxy-2,6-difluorobenzyl)-1H-indazol-3-yl]-6-(pyridin-4-ylamino)pyrimidin-5-yl}oxy)ethanol]
- IC50 [1, 2]: 0.0041 µM
- IC50 (HeLa cell line): 3.5 µM

SMILES: CCOc1cc(F)c(Cn2nc(-c3nc(Nc4ccncc4)c(NS(=O)(=O)C(F)(F)F)c(Nc4ccncc4)n3)c3ccccc32)c(F)c1 [Example 2-4-11, N-{2-[1-(4-ethoxy-2,6-difluorobenzyl)-1H-indazol-3-yl]-4,6-bis(pyridin-4-ylamino)pyrimidin-5-yl}-1,1,1-trifluoromethanesulfonamide]
- IC50 [1, 2]: 2.1 µM

SMILES: CCOc1cc(F)c(Cn2nc(-c3nc(N)c(NC(=O)COC)c(Nc4ccncn4)n3)c3ccccc32)c(F)c1 [Example 2-3-14, N-{4-amino-2-[1-(4-ethoxy-2,6-difluorobenzyl)-1H-indazol-3-yl]-6-(pyrimidin-4-ylamino)pyrimidin-5-yl}-2-methoxyacetamide]
- IC50 [1, 2]: 0.0079 µM
- IC50 (HeLa cell line): ≥ 10 µM

SMILES: CCOc1cc(F)c(Cn2nc(-c3nc(Nc4ccncc4)c(NC(=O)COC)c(Nc4ccncc4)n3)c3ccccc32)c(F)c1 [Example 2-4-8, N-{2-[1-(4-ethoxy-2,6-difluorobenzyl)-1H-indazol-3-yl]-4,6-bis(pyridin-4-ylamino)pyrimidin-5-yl}-2-methoxyacetamide]
- IC50 [1, 2]: 0.22 µM
- IC50 (HeLa cell line): 2.5 µM

SMILES: CCOc1cc(F)c(Cn2nc(-c3nc(Nc4ccncc4)c(OCCOC)c(Nc4ccncc4)n3)c3ccccc32)c(F)c1 [Example 2-4-6, 2-[1-(4-ethoxy-2,6-difluorobenzyl)-1H-indazol-3-yl]-5-(2-methoxyethoxy)-N,N′-di(pyridin-4-yl)pyrimidine-4,6-diamine]
- IC50 (HeLa cell line; [3]): ≥ 10 µM

SMILES: CCOc1cc(F)c(Cn2nc(-c3nc(Nc4ccncn4)c(OCCOC)c(Nc4ccncn4)n3)c3ccccc32)c(F)c1 [Example 2-4-7, 2-[1-(4-ethoxy-2,6-difluorobenzyl)-1H-indazol-3-yl]-5-(2-methoxyethoxy)-N,N′-di(pyrimidin-4-yl)pyrimidine-4,6-diamine]
- IC50 (HeLa cell line; [3]): ≥ 10 µM

SMILES: CCOc1cc(F)c(Cn2nc(-c3nc(N)c(OC)c(Nc4ccncn4)n3)c3ccccc32)c(F)c1 [Example 2-3-6, 2-[1-(4-ethoxy-2,6-difluorobenzyl)-1H-indazol-3-yl]-5-methoxy-N-(pyrimidin-4-yl)pyrimidine-4,6-diamine]
- IC50 [1, 2]: 0.0065 µM

SMILES: COCC(=O)Nc1cc(N(c2ccncc2)c2ccncc2)nc(-c2nn(Cc3ccccc3F)c3ccccc23)n1 [Example 2-2-4, N-{6-(dipyridin-4-ylamino)-2-[1-(2-fluorobenzyl)-1H-indazol-3-yl]pyrimidin-4-yl}-2-methoxyacetamide]
- IC50 [1]: > 20 µM

SMILES: CC(=O)Nc1cc(N(c2ccncc2)c2ccncc2)nc(-c2nn(Cc3ccccc3F)c3ccccc23)n1 [Example 2-2-3, N-{6-(dipyridin-4-ylamino)-2-[1-(2-fluorobenzyl)-1H-indazol-3-yl]-pyrimidin-4-yl}acetamide]
- IC50 [1, 2]: 18 µM

— patent US20170283396A1, “DIAMINOHETEROARYL SUBSTITUTED INDAZOLES” (Bayer Pharma Aktiengesellschaft, priority 2013, published 2017)
